Test results from patent US9006282B2 (Redx Pharma Limited, priority 2009, dated 2015).

Assays:
[1] = biological target: HMG-CoA Reductase (Homo sapiens (Human), UniProt P04035); assay: HMG-CoA Reductase assay kit (Sigma-Aldrich CS1090), spectrophotometric NADPH absorbance at 340 nm; assay type: biochemical; conditions: inhibitor varied 0 nM to 50 nM, NADPH and HMG-CoA 200 μM
Experimental: All assays were carried out in a reaction buffer containing […] KxPO4 at pH 7.2, 1 mM EDTA, 500 mM KCl and 1 mg/ml BSA. The concentrations of NADPH and HMG-CoA were both 200 μM. […] Absorbance readings were then taken every 20 seconds for 600 seconds.
Preparation of the Assay Solution
Add a buffer to all samples. • b. […] Add the reconstituted NADPH to all samples. • d. Add Substrate Solution (HMG-CoA) to all samples. • e. […] Mix the samples thoroughly.
3. The kinetics programme was started immediately.
V=volume of enzyme used in the assay (ml)
0.6=enzyme concentration in mg-protein (mgPO/ml (0.55-0.65 mgP/ml)
LP=light path in cm (1 for cuvettes).

[2] = system: rat plasma triglyceride levels; assay: Rat plasma triglyceride levels after 3 or 5 days BID oral treatment; assay type: in vivo; conditions: male SD rats, 25 mg/kg po BID for 3 or 5 days, plasma 16 hours after last dose
Experimental: 112 male SD rats (Harlan) were housed in groups of 6 under a 12 h light dark cycle (lights on 07.00 h) with free access to food (normal laboratory chow) and water. Animals between 148-183 g were allocated to treatment groups of 8 balanced by body weight and treatments were balanced across cages.
Four rosuvastatin analogues were made up in 10% PEG300/10% cremophor/80% methyl cellulose (0.5%) (vehicle 1) to make a 5 mg/mL solution.
Rosuvastatin was formulated in 0.5% Tween in 0.5% methyl cellulose (vehicle 2) at 5 mg/kg as a suspension.
Rats were orally dosed with vehicle 1, one of the four rosuvastatin analogues in vehicle 1 (25 mg/kg), vehicle 2 or rosuvastatin in vehicle 2 (25 mg/kg po), BID for 3 or 5 days.
Sixteen hours after the last treatment, terminal plasma samples were taken, stored at −20° C., and transported on dry ice for analysis of triglyceride levels.
Data for each time-point were analysed by 1-way ANOVA and post-hoc Dunnett's test.

HMG-CoA Reductase, sequence (P04035 340-888): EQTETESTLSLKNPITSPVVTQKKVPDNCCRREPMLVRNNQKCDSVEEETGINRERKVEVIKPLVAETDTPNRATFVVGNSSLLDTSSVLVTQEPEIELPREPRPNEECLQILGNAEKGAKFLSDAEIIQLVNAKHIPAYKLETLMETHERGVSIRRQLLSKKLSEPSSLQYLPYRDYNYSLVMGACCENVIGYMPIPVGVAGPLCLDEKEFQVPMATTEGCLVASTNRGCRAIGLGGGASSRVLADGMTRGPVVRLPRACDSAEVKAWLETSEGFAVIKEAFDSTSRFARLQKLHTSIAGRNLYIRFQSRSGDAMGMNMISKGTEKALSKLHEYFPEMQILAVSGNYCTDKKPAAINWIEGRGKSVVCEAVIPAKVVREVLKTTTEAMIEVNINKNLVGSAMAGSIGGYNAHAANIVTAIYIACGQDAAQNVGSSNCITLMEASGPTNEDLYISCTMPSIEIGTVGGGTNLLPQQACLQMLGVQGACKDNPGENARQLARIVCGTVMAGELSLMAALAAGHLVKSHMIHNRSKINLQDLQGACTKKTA

`CCCOC1C[C@H](O)C[C@@H](CCn2c(-c3ccc(F)cc3)c(-c3ccccc3)c(C(=O)Nc3ccccc3)c2C(C)C)O1` (some centres unmarked) gave an IC50 ([1]; atorvastatin compounds) of less than 1 nM.

Molecule `COc1ccc(OC2C[C@H](O)C[C@@H](CCn3c(-c4ccc(F)cc4)c(-c4ccccc4)c(C(=O)Nc4ccccc4)c3C(C)C)O2)c(OC)c1` (some centres unmarked) has an IC50 ([1]; atorvastatin compounds) of less than 1 nM.

For `CC(C)c1nc(N(C)S(C)(=O)=O)nc(-c2ccc(F)cc2)c1C=CC(O)CC(O)CC(=O)O` (centres unmarked) [rosuvastatin, 7-[4-(4-fluorophenyl)-6-(1-methylethyl)-2-(methyl-methylsulfonyl-amino)-pyrimidin-5-yl]-3,5-dihydroxy-hept-6-enoic acid], the “effect on plasma triglycerides” value [2] was “marked reduction in plasma triglycerides”.

`COC1C[C@H](OC(=O)c2cccnc2)C[C@@H](/C=C/c2c(-c3ccc(F)cc3)nc(N(C)S(C)(=O)=O)nc2C(C)C)O1` (some centres unmarked) was tested, and the IC50 ([1]; rosuvastatin compounds) was less than 1 nM.

For `CC(C)c1c(C(=O)Nc2ccccc2)c(-c2ccccc2)c(-c2ccc(F)cc2)n1CC[C@@H]1C[C@@H](O)CC(OC2CCCCC2)O1` (some centres unmarked), the IC50 ([1]; atorvastatin compounds) was less than 1 nM.

`CC(C)c1nc(N(C)S(C)(=O)=O)nc(-c2ccc(F)cc2)c1/C=C/[C@@H]1C[C@@H](O)CC(Oc2c(F)cc(F)cc2F)O1` (some centres unmarked) showed an IC50 ([1]; rosuvastatin compounds) of 1 nM.

`CC(C)c1nc(N(C)S(C)(=O)=O)nc(-c2ccc(F)cc2)c1/C=C/[C@@H]1C[C@@H](O)CC(OCC(Cl)(Cl)Cl)O1` (some centres unmarked) gave an IC50 ([1]; rosuvastatin compounds) of 2 nM.

`CCCOC1C[C@H](O)C[C@@H](/C=C/c2c(-c3ccc(F)cc3)nc(N(C)S(C)(=O)=O)nc2C(C)C)O1` (some centres unmarked) gave an IC50 ([1]; rosuvastatin compounds) of 10 nM.

`CC(C)c1nc(N(C)S(C)(=O)=O)nc(-c2ccc(F)cc2)c1/C=C/[C@@H]1C[C@@H](OCc2ccccc2)CC(OCC(Cl)(Cl)Cl)O1` (some centres unmarked) gave an IC50 ([1]; rosuvastatin compounds) of 2 nM.

`COC1C[C@H](OC(=O)c2cccnc2)C[C@@H](CCn2c(-c3ccc(F)cc3)c(-c3ccccc3)c(C(=O)Nc3ccccc3)c2C(C)C)O1` (some centres unmarked) showed an IC50 ([1]; atorvastatin compounds) of less than 1 nM.

`COc1ccc(OC2C[C@H](O)C[C@@H](/C=C/c3c(-c4ccc(F)cc4)nc(N(C)S(C)(=O)=O)nc3C(C)C)O2)c(OC)c1` (some centres unmarked) was tested, and the IC50 ([1]; rosuvastatin compounds) was 2 nM.
